Source: US9889144B2, “Abiraterone acetate formulation and methods of use” (iCeutica Inc., priority 2013, dated 2018)

Tests used:
[1] = Abiraterone acetate stability with and without milling, total impurities by HPLC; assay type: physicochemical; conditions: 80° C., 4 hrs
Text: The impurity growth in the DPI and tablets containing fine particle abiraterone acetate is due to oxidative degradation of abiraterone acetate. […] The faster degradation in tablets containing fine particle abiraterone acetate could arise from a number of sources, including, but not limited to: greater surface area of the API, higher proportion of excipient relative to the API, and differences in excipients.

[2] = cited from earlier work

Q: With `CC(=O)O[C@H]1CC[C@@]2(C)C(=CC[C@@H]3[C@@H]2CC[C@]2(C)C(c4cccnc4)=CC[C@@H]32)C1` [Abiraterone Acetate (API), 17-(3-Pyridyl) androsta-5, acetate] as the compound, how does the “Total impurities by HPLC” value ([1]; Milling none) read?
A: 0.23 % AUC

Q: What about the “Total impurities by HPLC” value ([1]; SPEX shaker mill) of the same compound?
A: 0.17 % AUC

Q: And the water solubility [2]?
A: poorly water soluble
